Some test systems named below: K562; M14; IGROV-1; COLO 205; MOLT-4; Malme-3M; UACC-62; DMS-273; A549; NCI-H460; ACHN; TK-10; OVCAR-3; SK-MEL-28; KM12; HOP-62; OVCAR-4; NCI/ADR-RES; PC-3; BT-549.
Assay in all cases: inhibition of tumour cell growth, NCI panel, 48 h

12 molecules from ChEMBL document CHEMBL1201862, “PubChem BioAssay data set” (2004) can be followed below.

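Exposure lasted 48 hours, with cells grown in 96-well plates and compounds tested at five concentrations. Here, GI50 denotes the concentration required for 50% inhibition of growth.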 Calls of active or inactive are those of the source. No stated cut-off is given here; in the data, active = GI50 up to about 1.1 µM and inactive = higher.

Turning to `CCC/C(=N/NC(=O)C(N)=O)C(CC)C(=O)CCC(=O)N(Cc1ccccc1)Cc1ccccc1` (stereo unspecified), the GI50 with K562, in the assay on M14, in the assay on IGROV-1, in the assay on COLO 205, with MOLT-4 and in the assay with Malme-3M was > 100 µM (inactive) in each case. Further, the GI50 in the assay on UACC-62, in the assay on DMS-273, in the assay with A549, with NCI-H460, with ACHN and in the assay on TK-10 was > 100 µM (inactive) in each case. For the same molecule, the GI50 in the assay on OVCAR-3, in the assay on SK-MEL-28, in the assay on KM12 and in the assay on HOP-62 was > 100 µM (inactive) throughout.
For the molecule `Cc1cc2c(=O)cc(-c3ccncc3)oc2c(C(N)=O)c1C`, the GI50 in the assay with IGROV-1 is > 100 µM (inactive); in the assay with COLO 205 it was > 100 µM (inactive); in the assay on MOLT-4, > 100 µM (inactive); with Malme-3M, > 100 µM (inactive); with UACC-62 it was 99.8 µM (inactive); with DMS-273, > 100 µM (inactive). Also, the GI50 was > 100 µM (inactive) with A549; 87.9 µM (inactive) with NCI-H460; > 100 µM (inactive) in the assay on ACHN; > 100 µM (inactive) with TK-10; > 100 µM (inactive) in the assay with OVCAR-3; > 100 µM (inactive) in the assay on SK-MEL-28. The GI50 with HOP-62 is > 100 µM (inactive).
For the molecule `COc1ccc2c3c([nH]c2c1[N+](=O)[O-])C(C)=NCC3`, the GI50 was 62.7 µM (inactive) in the assay with K562; > 100 µM (inactive) with M14; 20.9 µM (inactive) with IGROV-1; 15.2 µM (inactive) in the assay on COLO 205; 30.8 µM (inactive) in the assay with MOLT-4; 19.5 µM (inactive) with UACC-62. For the same molecule, the GI50 was 41.7 µM (inactive) in the assay with DMS-273; 77.4 µM (inactive) in the assay on A549; 34.9 µM (inactive) with NCI-H460; 52.6 µM (inactive) with ACHN; > 100 µM (inactive) with TK-10; > 100 µM (inactive) with OVCAR-3. For the same molecule, the GI50 is > 100 µM (inactive) with SK-MEL-28, 89.3 µM (inactive) with KM12, > 100 µM (inactive) in the assay with HOP-62 and > 100 µM (inactive) with OVCAR-4.
For `COC(=O)/C(=N\Nc1nnc(C)n1N)C(C#N)c1ccc(Cl)cc1` (stereo unspecified), the GI50 with M14 was > 100 µM (inactive); in the assay on IGROV-1, > 100 µM (inactive); in the assay with COLO 205, 95.1 µM (inactive); in the assay with Malme-3M, > 100 µM (inactive); with UACC-62, > 100 µM (inactive); in the assay with DMS-273 it was > 100 µM (inactive). For the same molecule, the GI50 in the assay on A549, in the assay with NCI-H460, in the assay on ACHN, in the assay with TK-10, in the assay with OVCAR-3 and in the assay with SK-MEL-28 was > 100 µM (inactive) throughout. Moreover, the GI50 with KM12, with HOP-62 and in the assay with OVCAR-4 was > 100 µM (inactive) each time.
As for `CSc1ccc(Cc2cc(C(C)(C)C)cc(C(C)(C)C)c2O)cc1`, the GI50 in the assay on K562 is 12 µM (inactive); in the assay on M14, 15.1 µM (inactive); in the assay on IGROV-1 it was 13.8 µM (inactive); in the assay with MOLT-4, 8.07 µM (inactive); in the assay with Malme-3M it was 15.2 µM (inactive); in the assay with UACC-62 it was 15.3 µM (inactive). The GI50 in the assay with DMS-273 was 13.7 µM (inactive); in the assay with A549, 13.6 µM (inactive); in the assay with NCI-H460, 14 µM (inactive); with ACHN it was 15 µM (inactive); in the assay on TK-10, 12.9 µM (inactive); with SK-MEL-28, 16.5 µM (inactive). For the same molecule, the GI50 was 11 µM (inactive) with KM12, 20.6 µM (inactive) in the assay with HOP-62 and 15.4 µM (inactive) with OVCAR-4.
Turning to `O=C1c2ccccc2OP(=O)(OCC(F)(F)F)OC1(C(F)(F)F)C(F)(F)F` (stereo unspecified), the GI50 in the assay with K562, in the assay with M14, in the assay with IGROV-1, in the assay with COLO 205, with MOLT-4 and with UACC-62 was > 100 µM (inactive) throughout. Besides, the GI50 in the assay with DMS-273, with A549, with NCI-H460, in the assay with ACHN, in the assay on TK-10 and in the assay on SK-MEL-28 was > 100 µM (inactive) each time. The GI50 in the assay on KM12, in the assay on HOP-62 and in the assay with OVCAR-4 was > 100 µM (inactive) in each case.
As to `Cc1nn(-c2ccccc2)c2nc3c(c(C)nn3-c3ccccc3)c(-c3ccccc3Br)c12`, the GI50 in the assay with K562, with M14, in the assay on IGROV-1, in the assay on COLO 205, in the assay with MOLT-4 and with Malme-3M was > 100 µM (inactive) each time. For the same molecule, the GI50 is > 100 µM (inactive) in the assay with UACC-62; > 100 µM (inactive) with NCI/ADR-RES; 8.95 µM (inactive) in the assay on A549; > 100 µM (inactive) with NCI-H460; > 100 µM (inactive) in the assay with ACHN; > 100 µM (inactive) with TK-10. The GI50 in the assay on PC-3, in the assay on OVCAR-3, in the assay on SK-MEL-28, in the assay with KM12, in the assay with HOP-62 and with OVCAR-4 was > 100 µM (inactive) in each case. Besides, in the assay with BT-549, the GI50 is > 100 µM (inactive).
In the case of `O=C(N/N=C/c1cc(Br)ccc1O)N/N=C/c1cc(Br)ccc1O`, the GI50 was 0.377 µM (active) in the assay with K562; 2.14 µM (inactive) with IGROV-1; 4.45 µM (inactive) in the assay with COLO 205; 1.97 µM (inactive) with MOLT-4; 3.64 µM (inactive) in the assay with Malme-3M; 2.24 µM (inactive) in the assay on UACC-62. Besides, the GI50 in the assay with DMS-273 was 0.791 µM (active); in the assay with A549 it was 1.56 µM (inactive); with NCI-H460, 3.1 µM (inactive); in the assay on ACHN, 4.6 µM (inactive); in the assay with TK-10 it was 54.6 µM (inactive); in the assay with SK-MEL-28, > 100 µM (inactive). Also, the values for the GI50 in the assay with KM12, in the assay on HOP-62 and with OVCAR-4 were 5.35 µM (inactive), 4.46 µM (inactive) and 3.72 µM (inactive), respectively.
In the case of `Cc1ccc2nc(CC(=O)c3ccc4ccccc4c3)c(O)nc2c1`, the GI50 with K562, with M14, in the assay with IGROV-1, in the assay on COLO 205, in the assay on MOLT-4 and with Malme-3M was > 100 µM (inactive) throughout. The GI50 in the assay with UACC-62, in the assay with NCI/ADR-RES, with A549, with NCI-H460, in the assay with ACHN and in the assay on TK-10 was > 100 µM (inactive) each time. Moreover, the GI50 with PC-3, with OVCAR-3, in the assay on SK-MEL-28, with KM12, with HOP-62 and in the assay on OVCAR-4 was > 100 µM (inactive) each time. Also, the GI50 with BT-549 was > 100 µM (inactive).
Consider `Cc1cccc(/N=N/C(=N\NC(=O)c2cc(Cl)ccc2O)c2ccc(N(CCC#N)CCC#N)cc2C)c1`, for which the GI50 is 33.3 µM (inactive) with K562; 45.5 µM (inactive) in the assay on M14; 14.6 µM (inactive) in the assay on IGROV-1; 13.6 µM (inactive) in the assay on COLO 205; 15.9 µM (inactive) with MOLT-4; 28.1 µM (inactive) with Malme-3M. The GI50 in the assay on UACC-62 is 24 µM (inactive); in the assay on NCI/ADR-RES, 45.1 µM (inactive); in the assay with A549, 26.5 µM (inactive); in the assay with NCI-H460, 26.1 µM (inactive); with ACHN, 34.7 µM (inactive); with TK-10, 20 µM (inactive). For the same molecule, the GI50 with PC-3 is 25.8 µM (inactive); in the assay on OVCAR-3, 18.5 µM (inactive); with SK-MEL-28, 42.9 µM (inactive); with KM12, 27.2 µM (inactive); with HOP-62, 28.2 µM (inactive); with OVCAR-4 it was 22.1 µM (inactive). Besides, the GI50 in the assay with BT-549 was 24.2 µM (inactive).
As to `O=C(O)c1ccccc1CC1Cc2ccccc2C1`, the GI50 in the assay with K562, with M14, in the assay on IGROV-1, in the assay on COLO 205, with MOLT-4 and in the assay on Malme-3M was > 100 µM (inactive) throughout. The GI50 in the assay with UACC-62, in the assay with NCI/ADR-RES, in the assay on A549, in the assay with NCI-H460, with ACHN and in the assay on TK-10 was > 100 µM (inactive) each time. Moreover, the GI50 in the assay on PC-3, in the assay with OVCAR-3, with SK-MEL-28, in the assay on KM12, with HOP-62 and in the assay with OVCAR-4 was > 100 µM (inactive) throughout. Moreover, in the assay on BT-549, the GI50 was > 100 µM (inactive).
As for `N#CC(C(=O)/C(=N\Nc1nc(S)nn1N)C(C#N)c1ccc(Cl)cc1)c1ccc(Cl)cc1` (stereo unspecified), the GI50 with M14, in the assay on IGROV-1, with COLO 205, in the assay on Malme-3M, with UACC-62 and in the assay with DMS-273 was > 100 µM (inactive) each time. Further, the GI50 in the assay on A549, in the assay with NCI-H460, with ACHN, with TK-10, in the assay with OVCAR-3 and in the assay on SK-MEL-28 was > 100 µM (inactive) throughout. The GI50 in the assay with KM12, in the assay with HOP-62 and in the assay on OVCAR-4 was > 100 µM (inactive) throughout.
